Measured values published in article PMC8329300, “X-ray crystallography reveals molecular recognition mechanism for sugar binding in a melibiose transporter MelB” (Communications Biology, 2021).
Read-outs that look alike come from different tables or passages of the source.

How the values were obtained:
[1] = tested on: E. coli DW2 strain (melB−, lacZ−Y−); experiment: [3H]Melibiose transport time course with DW2 intact cells; assay type: cell-based, Escherichia coli; design: unit not given here; conditions: 0.4 mM [3H]melibiose
Protocol: Fig. 1 Functional characterizations. a [^3H] Melibiose transport time course with intact cells. E. coli DW2 strain (melB^−, lacZ^−Y^−) expressed with the WT, D59C, or D59A MelBSt mutants were subjected to [^3H]melibiose active transport assay at 0.4 mM and 10 mCi/mmol in the presence of 20 mM or 100 mM NaCl or LiCl by a fast filtration method. Inset, melibiose fermentation assay. Transformants with DW2 strain were plated on MacConkey agar plates containing 30 mM melibiose as the sole carbohydrate source and pH sensor neutral red, and incubated at 37 °C for 16–18 h before imaging. Number of tests = 3, from different batch of cells or duplicate measurements from same batch of sample. b Ligand binding by Trp→dansyl galactoside (D^2G) FRET assay. Purified proteins at 1 μM concentration in 20 mM Tris-HCl, pH 7.5, 100 mM CholCl, 10% glycerol, and 0.03% UDM were subjected to steady-state fluorescence measurements as described in Methods. On the time-trace, 1.8 μL of 1 mM D^2G at 10 μM was added into 180 μL of protein solutions at 1-min point, followed by supplying 10 μL of 5 mM DDMB or 5 mM α-NPG to displace the bound D^2G. For testing Na^+ or Li^+ binding, they are added into the solution before displacement with the second sugar. The structure of DDMB or α-NPG is shown in a chair form, and the carbon positions are labeled. Glycosidic bonds are indicated by arrows. Both are α-galactosides containing a substituent at the anomeric carbon-1. The data were from duplicate measurements.
The overexpression of MelBSt was carried out in the E. coli DW2 strain (melA^+, melB^−, and lacZ^−Y^−) from a constitutive expression plasmid pK95ΔAH/MelBSt/CHis10[9],[28],[33]. The D59C or D59A mutant with Cys or Ala at the position 59, respectively, was constructed previously[9] or in this study by QuikChange Site-Directed Mutagenesis kit and confirmed by DNA sequencing analysis. E. coli DW2 cells containing a given plasmid were grown in Luria-Bertani (LB) broth (5 g yeast extract and 10 g tryptone per liter with 171 mM NaCl) with 100 mg/L of ampicillin in a 37 °C shaker. The overnight cultures were diluted by 5% with LB broth supplemented with 0.5% glycerol and 100 mg/L of ampicillin, and constitutive overexpression was obtained by shaking at 30 °C for another 5 h.
E. coli DW2 cells expressing MelBSt were washed with 100 mM KPi, pH 7.5, to remove Na^+ contamination as described previously. The cell pellets were resuspended with the assay buffer (100 mM KPi, pH 7.5, 10 mM MgSO4) and adjusted to A420 of 10 (∼0.7 mg protein/ml). Using a fast filtration, transport time course at 0.4 mM melibiose (at specific activity of 10 mCi/mmol) was carried out in the absence or presence of NaCl or LiCl at 20 mM or 100 mM, respectively, and intracellular melibiose was determined as described previously.

WT MelBSt = molecular target: T1, WT MelBSt (Salmonella typhimurium, UniProt P30878); conditions: ITC 25 °C, data from publication or averaged with more tests, read-out: Kd of substrate binding, Melibiose, cited from earlier work
T1 construct: Cys scanning mutagenesis for the full-length MelBSt; His10 (C); made in house; host or cells: E. coli DW2
T1 sequence (P30878 whole entry): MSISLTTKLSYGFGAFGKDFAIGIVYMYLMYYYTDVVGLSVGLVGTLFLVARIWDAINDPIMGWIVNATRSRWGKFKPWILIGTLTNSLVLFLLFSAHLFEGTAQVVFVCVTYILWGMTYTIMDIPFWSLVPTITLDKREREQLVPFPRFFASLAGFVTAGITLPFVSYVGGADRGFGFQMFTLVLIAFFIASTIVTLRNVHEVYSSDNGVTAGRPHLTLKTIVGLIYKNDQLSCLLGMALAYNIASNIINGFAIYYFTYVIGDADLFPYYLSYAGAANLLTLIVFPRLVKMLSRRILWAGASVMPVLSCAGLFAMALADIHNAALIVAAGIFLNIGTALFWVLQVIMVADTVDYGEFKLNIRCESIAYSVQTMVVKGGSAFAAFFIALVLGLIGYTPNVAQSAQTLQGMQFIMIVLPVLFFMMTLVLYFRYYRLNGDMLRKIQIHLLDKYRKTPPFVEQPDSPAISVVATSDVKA

SMILES: OC[C@H]1O[C@H](OCC2O[C@@H](O)[C@H](O)[C@@H](O)[C@@H]2O)[C@H](O)[C@@H](O)[C@H]1O (stereo partly drawn) [Melibiose]
- Melibiose transport ([1]; H+, Time 0.08333): 5.1051
- Melibiose transport ([1]; H+, Time 0.16667): 0.0051
- Melibiose transport ([1]; H+, Time 0.5): 5.3907
- Melibiose transport ([1]; H+, Time 1): 1.8156
- Melibiose transport ([1]; H+, Time 2): 6.1659
- Melibiose transport ([1]; H+, Time 5): 3.5343
- Melibiose transport ([1]; H+, Time 10): 0.765
- Melibiose transport ([1]; H+, Time 30): 0.4743
- Melibiose transport ([1]; Li+, 20 mM, Time 0.08333): 4.9419
- Melibiose transport ([1]; Li+, 20 mM, Time 0.16667): 5.658
- Melibiose transport ([1]; Li+, 20 mM, Time 0.5): 3.542
- Melibiose transport ([1]; Li+, 20 mM, Time 1): 2.349
- Melibiose transport ([1]; Li+, 20 mM, Time 2): 6.918
- Melibiose transport ([1]; Li+, 20 mM, Time 5): 4.664
- Melibiose transport ([1]; Li+, 20 mM, Time 10): 5.3448
- Melibiose transport ([1]; Li+, 20 mM, Time 30): 4.1259
- Melibiose transport ([1]; Li+, 100 mM, Time 0.08333): 3.0914
- Melibiose transport ([1]; Li+, 100 mM, Time 0.16667): 1.7168
- Melibiose transport ([1]; Li+, 100 mM, Time 0.5): 6.0378
- Melibiose transport ([1]; Li+, 100 mM, Time 1): 1.9198
- Melibiose transport ([1]; Li+, 100 mM, Time 2): 3.77
- Melibiose transport ([1]; Li+, 100 mM, Time 5): 5.9682
- Melibiose transport ([1]; Li+, 100 mM, Time 10): 7.743
- Melibiose transport ([1]; Li+, 100 mM, Time 30): -0.2436
- Melibiose transport ([1]; Na+, 20 mM, Time 0.08333): 5.1051
- Melibiose transport ([1]; Na+, 20 mM, Time 0.16667): 0.0051
- Melibiose transport ([1]; Na+, 20 mM, Time 0.5): 5.3907
- Melibiose transport ([1]; Na+, 20 mM, Time 1): 1.8156
- Melibiose transport ([1]; Na+, 20 mM, Time 2): 6.1659
- Melibiose transport ([1]; Na+, 20 mM, Time 5): 3.5343
- Melibiose transport ([1]; Na+, 20 mM, Time 10): 0.765
- Melibiose transport ([1]; Na+, 20 mM, Time 30): 0.4743
- Melibiose transport ([1]; Na+, 100 mM, Time 0.08333): 0.1281
- Melibiose transport ([1]; Na+, 100 mM, Time 0.16667): 1.6531
- Melibiose transport ([1]; Na+, 100 mM, Time 0.5): 2.6962
- Melibiose transport ([1]; Na+, 100 mM, Time 1): 0.671
- Melibiose transport ([1]; Na+, 100 mM, Time 2): -3.3611
- Melibiose transport ([1]; Na+, 100 mM, Time 5): 0.2867
- Melibiose transport ([1]; Na+, 100 mM, Time 10): 0.0793
- Melibiose transport ([1]; Na+, 100 mM, Time 30): -2.3912
- Kd (WT MelBSt; Apo): 9.28 ± 0.23 mM
- Kd (WT MelBSt; Na+ (100 mM)): 1.09 ± 0.06 mM
